Converted amounts (≈) assume the structure as drawn. Where two headings read alike, the source gives them in different places.
Legend:
Experiment in all cases: MIC, serial two-fold agar dilution method
Type in all cases: cell-based
[1] = tested on: Bacillus subtilis ATCC 6633
Method: (§1) The minimum inhibitory concentrations (MICs) of BU-4726G-A and BU-4726G-B were determined against various bacteria and fungi by the serial two-fold agar dilution method. Nutrient agar medium (Eiken) was used for bacteria and Sabouraud dextrose agar medium (Difco) for fungi.
(§2) Medium: Nutrient agar (Eiken, pH 7.0)
(§3) Inoculum size: 10^5 cells/ml
(§4) Inoculated conditions: 32° C., 20 hours

Escherichia coli Juhl = tested on: Escherichia coli Juhl
Method: as §1, §2, §3, §4

Escherichia coli K12 = details: Nutrient agar pH 7.0, 10^5 cells/ml, 32° C., 20 hours
Method: as §1, §2, §3, §4

[2] = tested on: Klebsiella pneumoniae PCI 602
Method: as §1, §2, §3, §4

[3] = tested on: Micrococcus luteus ATCC 9341
Method: as §1, §2, §3, §4

[4] = tested on: Pseudomonas aeruginosa A9843 A; details: A9843A
Method: as §1, §2, §3, §4

Salmonella typhi 901 = details: Salmonella enterica, 20 h, pH 7
Method: as §1, §2, §3, §4

[5] = tested on: Staphylococcus aureus 209P
Method: as §1, §2, §3, §4

[6] = tested on: Staphylococcus aureus A15036(MRSA)
Method: as §1, §2, §3, §4

[7] = tested on: Staphylococcus aureus Smith
Method: as §1, §2, §3, §4

[8] = tested on: Streptococcus faecalis A2808; details: Enterococcus faecalis, A2808, 20 h, pH 7
Method: as §1, §2, §3, §4

[9] = tested on: Staphylococcus epidermidis 11-1168; details: 111168, Nutrient agar pH 7.0, 10^5 cells/ml, 32° C., 20 hours
Method: as §1, §2, §3, §4

SMILES: N[C@@H](C(=O)N[C@@H]1C(=O)N2C(C(=O)O)=C(Cl)CS[C@H]12)c1ccccc1 [Cefaclor]
- MIC ([1]; Bacillus subtilis, ATCC6633, 20 h, pH 7): < 0.05 µg/mL
- MIC (Escherichia coli Juhl; Escherichia coli, 20 h, pH 7): 0.4 µg/mL (≈ 1.09 µM)
- MIC (Escherichia coli K12): 0.4 µg/mL (≈ 1.09 µM)
- MIC ([2]; Klebsiella pneumoniae, PCI602, 20 h, pH 7): 0.2 µg/mL (≈ 0.544 µM)
- MIC ([3]; Micrococcus luteus, ATCC9341, 20 h, pH 7): < 0.05 µg/mL
- MIC ([4]; Pseudomonas aeruginosa, 20 h, pH 7): > 100 µg/mL
- MIC (Salmonella typhi 901): 0.2 µg/mL (≈ 0.544 µM)
- MIC ([5]; Staphylococcus aureus, 209P, 20 h, pH 7): 0.8 µg/mL (≈ 2.18 µM)
- MIC ([6]; Staphylococcus aureus, MRSA, 20 h, pH 7): 25 µg/mL (≈ 68 µM)
- MIC ([7]; Staphylococcus aureus, 20 h, pH 7): 0.4 µg/mL (≈ 1.09 µM)
- MIC [8]: 25 µg/mL (≈ 68 µM)

SMILES: NCC[C@H](O)C(=O)N[C@@H]1C[C@H](N)[C@@H](O[C@H]2O[C@H](CN)[C@@H](O)[C@H](O)[C@H]2O)[C@H](O)[C@H]1O[C@H]1O[C@H](CO)[C@@H](O)[C@H](N)[C@H]1O [Amikacin]
- MIC ([1]; ATCC6633, Bacillus subtilis ATCC 6633, Nutrient agar pH 7.0, 10^5 cells/ml, 32° C., 20 hours, read-out: MIC): 0.4 µg/mL (≈ 0.683 µM)
- MIC (Escherichia coli Juhl; Escherichia coli Juhl, Nutrient agar pH 7.0, 10^5 cells/ml, 32° C., 20 hours, read-out: MIC): 3.1 µg/mL (≈ 5.29 µM)
- MIC (Escherichia coli K12): 0.8 µg/mL (≈ 1.37 µM)
- MIC ([2]; PCI602, Klebsiella pneumoniae PCI 602, Nutrient agar pH 7.0, 10^5 cells/ml, 32° C., 20 hours, read-out: MIC): 0.4 µg/mL (≈ 0.683 µM)
- MIC ([3]; ATCC9341, Micrococcus luteus ATCC 9341, Nutrient agar pH 7.0, 10^5 cells/ml, 32° C., 20 hours, read-out: MIC): 3.1 µg/mL (≈ 5.29 µM)
- MIC ([4]; Pseudomonas aeruginosa A9843 A, Nutrient agar pH 7.0, 10^5 cells/ml, 32° C., 20 hours, read-out: MIC): 3.1 µg/mL (≈ 5.29 µM)
- MIC (Salmonella typhi 901): 3.1 µg/mL (≈ 5.29 µM)
- MIC ([5]; Staphylococcus aureus 209P, Nutrient agar pH 7.0, 10^5 cells/ml, 32° C., 20 hours, read-out: MIC): 0.4 µg/mL (≈ 0.683 µM)
- MIC ([6]; Staphylococcus aureus A15036(MRSA), Nutrient agar pH 7.0, 10^5 cells/ml, 32° C., 20 hours, read-out: MIC): 3.1 µg/mL (≈ 5.29 µM)
- MIC ([7]; Staphylococcus aureus Smith, Nutrient agar pH 7.0, 10^5 cells/ml, 32° C., 20 hours, read-out: MIC): 1.6 µg/mL (≈ 2.73 µM)
- MIC [9]: 50 µg/mL (≈ 85.4 µM)
- MIC [8]: 50 µg/mL (≈ 85.4 µM)

Reference: patent publication US5332574A, “Compounds produced by a strain of Streptomyces exfoliatus” (Bristol-Myers Squibb Company, priority 1993, dated 1994)
